Results published in patent publication US20170281653A1, “DERMOCOSMETIC OR PHARMACEUTICAL USE OF A COMPOSITION CONTAINING AT LEAST ONE INHIBITOR OF CERTAIN CHEMOKINES” (GREENPHARMA, priority 2014, published 2017).
Where two headings read alike, the source gives them in different places.

Tests used:
CCL17 = target: T1, CCL17 (Homo sapiens, UniProt Q92583); experiment: Inhibition of intracellular calcium response (INDO-1) induced by CCL17 in HEK 293 cells expressing CCR4; type: cell-based; conditions: compound concentration not given
T1 construct: host or cells: HEK 293 cells expressing EGFP-CCR4 (and Gqi5)
T1 sequence (Q92583 24-94): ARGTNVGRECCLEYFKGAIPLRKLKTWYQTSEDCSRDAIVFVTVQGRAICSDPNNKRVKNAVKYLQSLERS
Protocol: In order to enable an easy recording of the responses associated to the CCR4 receptor, the cDNA which allows its expression is cloned in the plasmid pIRES (ClonTech) in fusion with the GFP protein, according to Vollmer et al. (1999), which enables to easily measure the expression of the chimeric EGFP-CCR4 receptor. HEK 293 cells (ATCC) are cultured in minimal essential medium MEM (Invitrogen) in the presence of 10% of fetal calf serum (Gibco-BRL), 100 U/mL of penicillin (Invitrogen), 100 αg/mL of streptomycin (Invitrogen) and 2 mM of L-glutamine (Invitrogen) at 37° C. in water-saturated atmosphere and containing 5% of 002. The cells are transfected according to the calcium phosphate precipitate method of Chen ant Okayama, 1986, and the cells having incorporated the expression plasmid are selected with 600 αg/mL of geneticin G-418 (PAA) for 5 weeks. The clones are selected after having been characterized by fluorescence microscopy and cytometric analysis by FACS (fluorescence assisted cell sorting). In order to enable an easy recording of the cell responses associated to the CCR4 receptor, we modify its natural coupling to the inhibition of AMPc production to a coupling to the phospholipase C which enables calcium measurements. We produce for this purpose the chimeric protein Gqi5 by directed mutagenesis of the 5 las amino acids of Gq replaced by their homologues of Gi. The cells expressing the CCR4 receptor are transfected with the plasmid pCNA3.1 in which the cDNA encoding Gqi5 has been incorporated. The recordings of calcium responses are performed the day after de transfection. The cells are loaded with a fluorescent calcium indicator, INDO-1, according to the protocol provided by the provider (Molecular probes), distributed in microplate wells and placed in a fluorescence reader-pipettor (FlexStation, Molecular devices). Intracellular calcium elevation is measured by fluorescence intensity change at 401 and 475 nm (excitation 355 nm). Measure points are recorded every 5 s for 150 s for each well. The molecules are tested in the presence of 5 nM of chemokine CCL22 (commercial). […] The response develops in a few seconds and fades with time for reaching the return in approximately 2 minutes for a chemokine CCL22 concentration of 5 to 10 nM in HEK 293 cells expressing CCR4. If the molecules to be tested are preincubated with chemokine [CK+N] and if the mixture is added to the cells, we observe a strong decrease in the amplitude of the response if the molecule to be tested is a neutralizing ligand of the chemokine. Conversely, when the neutralizing ligand is preincubated with the cells expressing the receptor [CKR+N] we observe a much smaller decrease of the amplitude of the response. Analysis of the molecules selectivity is carried out by measuring the inhibition of the response evoked by other chemokines on their respective receptors thus, in FIG. 3, the molecules have been tested on the pairs CCL2/CCR2, CCL3/CCR5, CCL17/CCR4, CCL22/CCR4, […], CXCL10/CXCR2, CXCL11/CXCR3, CXCL12/CXCR4.

CCL22 [1] = target: T2, CCL22 (Homo sapiens, UniProt O00626); experiment: Inhibition of intracellular calcium response (INDO-1) induced by CCL22 in HEK 293 cells expressing EGFP-CCR4 and Gqi5; type: cell-based; design: purchased; host or cells: HEK 293 cells stably expressing EGFP-CCR4, transiently transfected with Gqi5; conditions: HEK 293 cells expressing CCR4; 5 nM CCL22; compound concentration not given
T2 sequence (O00626 25-93): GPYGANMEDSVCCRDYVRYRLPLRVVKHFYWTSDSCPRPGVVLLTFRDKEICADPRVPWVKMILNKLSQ
Protocol: In order to enable an easy recording of the responses associated to the CCR4 receptor, the cDNA which allows its expression is cloned in the plasmid pIRES (ClonTech) in fusion with the GFP protein, according to Vollmer et al. (1999), which enables to easily measure the expression of the chimeric EGFP-CCR4 receptor. HEK 293 cells (ATCC) are cultured in minimal essential medium MEM (Invitrogen) in the presence of 10% of fetal calf serum (Gibco-BRL), 100 U/mL of penicillin (Invitrogen), 100 αg/mL of streptomycin (Invitrogen) and 2 mM of L-glutamine (Invitrogen) at 37° C. in water-saturated atmosphere and containing 5% of 002. The cells are transfected according to the calcium phosphate precipitate method of Chen ant Okayama, 1986, and the cells having incorporated the expression plasmid are selected with 600 αg/mL of geneticin G-418 (PAA) for 5 weeks. The clones are selected after having been characterized by fluorescence microscopy and cytometric analysis by FACS (fluorescence assisted cell sorting). In order to enable an easy recording of the cell responses associated to the CCR4 receptor, we modify its natural coupling to the inhibition of AMPc production to a coupling to the phospholipase C which enables calcium measurements. We produce for this purpose the chimeric protein Gqi5 by directed mutagenesis of the 5 las amino acids of Gq replaced by their homologues of Gi. The cells expressing the CCR4 receptor are transfected with the plasmid pCNA3.1 in which the cDNA encoding Gqi5 has been incorporated. The recordings of calcium responses are performed the day after de transfection. The cells are loaded with a fluorescent calcium indicator, INDO-1, according to the protocol provided by the provider (Molecular probes), distributed in microplate wells and placed in a fluorescence reader-pipettor (FlexStation, Molecular devices). Intracellular calcium elevation is measured by fluorescence intensity change at 401 and 475 nm (excitation 355 nm). Measure points are recorded every 5 s for 150 s for each well. The molecules are tested in the presence of 5 nM of chemokine CCL22 (commercial). […] The response develops in a few seconds and fades with time for reaching the return in approximately 2 minutes for a chemokine CCL22 concentration of 5 to 10 nM in HEK 293 cells expressing CCR4. If the molecules to be tested are preincubated with chemokine [CK+N] and if the mixture is added to the cells, we observe a strong decrease in the amplitude of the response if the molecule to be tested is a neutralizing ligand of the chemokine. Conversely, when the neutralizing ligand is preincubated with the cells expressing the receptor [CKR+N] we observe a much smaller decrease of the amplitude of the response. The apparent affinity of the GPN136 molecules is determined by the establishment of a dose-effect relationship of the inhibition of the calcium response as presented in FIG. 2 and the results obtained are reported in table 1.

CCL22 [2] = target: T2, CCL22; experiment: Interaction affinity by fluorescence extinction of tryptophan residues of CCL22; type: binding; conditions: for Fluorescence extinction of CCL22 (tryptophan intrinsic fluorescence): excitation 285 nm, emission 300-400 nm, FIG. 4; for Kd: CCL22 1.5 μm, HEPES buffer without albumin, 20° C., biphasic titration curve
Protocol: Briefly: the fluorescence measurements are carried out on a spectrofluorimeter Fluorolog 3 (JobinYvon/Spex) in a quartz cuvette. CCL22 (1.5 μm (HEPES buffer without albumin) in 1 mL final volume) is excited at 285 nm and its emission spectrum is recorded between 300 and 400 nm after each addition of an aliquot of molecule to be tested (1 μm). The measurements are carried out at 20° C. and the solutions are stirred using a magnetic stir bar. The recorded emission spectra are corrected by subtraction of the emission spectrum of the compound to be tested alone.

Hacat cells [3] = experiment: Human keratinocyte migration assay (in vitro wound-healing test in a cell monolayer, scratch, IncuCyte); type: cell-based; conditions: 100 ng/ml CCL22, 72 h, mitomycin 1 μg/ml, FIG. 5
Text: The activity of the GPN 136 molecule has been evaluated in a human keratinocytes migration assay performed according to an in vitro wound-healing test in a cell monolayer. It is actually known that, in these chronic pathologies, an important cell migration may promote de formation of pruritus, one of the signs of dermatosis. The immortalized human keratinocytes obtained from the DKFZ (Heidelberg, Germany) are cultivated in Dulbecco medium modified by Eagle (DMEM, Invitrogen) supplemented with 10% of fetal calf serum (Gibco-BRL) and 100 U/ml of penicillin (Invitrogen), 100 μg/ml of streptomycin (Invitrogen) and 2 mM of L glutamine (Invitrogen) at 37° C. and 5% of CO2. The wells of a culture plate of 24 well are inoculated with 200,000 cells and the culture is maintained until formation of a confluent cell monolayer. The cell monolayer is then damaged by performing a linear gap (scratch) using a sterile pipette head of 0.1-10 μL. […] The effect of the molecules alone is also recorded in different wells. […]
The culture plates are arranged in the IncuCyte apparatus which records the growth on the cell monolayer by transmitted imaging in cell culture conditions (37° C., 5% CO2, water-saturated atmosphere) for 72 h. […] Healing is defined (quantified) as the ratio of the width of the scar at time t and time 0. […]

Hacat cells [4] = experiment: Metabolic activity test (WST-1 assay), in vitro cytotoxic activity; type: cell-based, human; conditions: 0.3 μM, 10 μM or 30 μM, 72 hours, FIG. 7
Text: The metabolic activity test is a colorimetric test (WST-1 assay—Ozyme) based on the measurement of the activity of the mitochondrial enzyme succinate-tetrazolium reductase cleaving the tetrazolium salt WST-1 ((4-[3-(4-Iodophenyl)-2-(4-nitrophenyl)-2H-5-tetrazolio]-1,3 benzene disulfonate)) in a water-soluble derivative called formazan, a dye which absorbs light in the range of 420-480 nm. Hacat cells are distributed at the rate of 200,000 cells per well in a culture plate of 24 wells, in a final volume of 500 μL. They are cultured for 24 hours before adding mitomycin C (1 μg/ml) and the compound to be tested. The culture plate is incubated for 72 hours at 37° C., 5% CO2, in water-saturated atmosphere. […] The plates are stirred to homogenize the color in the wells and the absorbance is measured at 450 nm in the multiwell-plate reader. […] As enzymatic activity requires cellular integrity, the absorbance will be all the stronger as the metabolic state of the cells is good.
In vitro cytotoxic activity: the Hacat cell cultures are treated with different concentrations of molecule: 0.3 μM (dark gray bars), 10 μM (light gray bars) or 30 μM (white bars) of GPN 136 and GPN 025 molecules. The activity of the mitochondrial enzyme formazan-reductase is recorded using the chromogenic substrate WST-1 which turns into a colored product, called formazan, detected at 450 nm.

Compound	Inhibition of calcium responses induced by CCL17 (%) (CCL17)	Inhibition of calcium responses induced by CCL22 (%) (CCL22 [1])	other results
O=C(OCC(O)CO)c1ccccc1O (stereo in doubt) [GPS008505, (R)-2,3-dihydroxypropyl 2-hydroxybenzoate]	0%	37 ± 6%	
O=C(OCC(O)CO)c1ccccc1O (stereo in doubt) [GPS008506, (S)-2,3-dihydroxypropyl 2-hydroxybenzoate]	0%	40 ± 5%	
CC(=O)Oc1ccccc1C(=O)O [Acetylsalicylic acid, reference compound]	0%	0%	
COc1cc2nc(N3CCC(N4CCCCC4)CC3)nc(NC3CCCCCC3)c2cc1OC [C-021, reference compound]			Fluorescence extinction of CCL22 (tryptophan intrinsic fluorescence) (CCL22 [2]): no signal
O=C(OCC(O)CO)c1ccccc1O (stereo not shown) [GPN136, 2,3-dihydroxypropyl 2-hydroxybenzoate]	0%	35 ± 8%	Kd (CCL22 [2]; read-out: KD, second site): 53 µM; Kd (CCL22 [2]; read-out: KD, site of high affinity): < 0.05 µM; Fluorescence extinction of CCL22 (tryptophan intrinsic fluorescence) (CCL22 [2]): fluorescence extinction of CCL22 is observed; Effect on CCL22-accelerated cell migration (Hacat cells [3]): abolished; Effect on mitochondrial enzymatic activity / cellular metabolism (WST-1, 450 nm) (Hacat cells [4]): does not affect enzymatic activity
O=C(O)c1ccccc1O [GPN0001207]	0%	0%	
O=C(OCC(O)COC(=O)c1ccccc1O)c1ccccc1O [GPS008504]	0%	10 ± 5%	
O=C(OC[C@@H](O)CO)c1ccccc1 [GPS008507]	0%	0%	
O=C(OC[C@H](O)CO)c1ccccc1 [GPS008508]	0%	0%	
